Reference: patent US11753376B2, “Benzyloxy pyridine derivatives and uses thereof” (AUTOTAC INC., priority 2021, dated 2023)

System: intracellular autophagy flux (LC3-II) in HEK293T cell line
Assay: Evaluation of intracellular autophagy activity (autophagy flux) by immunoblotting
Format: cell-based, human
Conditions: HCQ 5 μM, 24 hours
Protocol: In order to evaluate the autophagy flux activity efficacy by the compounds, the HEK293T cell line, which is a cell line derived from a human embryonic kidney-derived cell, was cultured using a DMEM medium containing 10% FBS and 1% streptomycin/penicillin in an incubator with 5% carbon dioxide. In order to measure the autophagy flux activity according to the treatment of the compounds synthesized in the above examples, each cell was dispensed in a 6-well plate. Additional incubation was carried out for 24 hours so that the cells were completely attached to the surface of the plate. Cells were collected after treatment with the compound (5 μM) alone or with the lysosomal inhibitor, hydroxychloroquine (HCQ) (5 μM) for 24 hours to determine whether the compound increases autophagy flux. […] Based on the measured total protein concentration, a sample buffer was added to each sample and reacted at 100° C. for 5 minutes. […]
FIG. 2 is a result of immunoblotting showing the efficacy of the compound (ATB1110) to activate intracellular autophagy flux. […] As HCQ was treated, the level of LC3-II, a marker of autophagy activity, was increased, and the difference between LC3-II in the untreated state and the treated state was measured. […]

CCN(CCO)CCCC(C)Nc1ccnc2cc(Cl)ccc12 (stereo not shown) [HCQ, hydroxychloroquine]
level of LC3-II, a marker of autophagy activity: increased
